The source of these data is the NIST ThermoML archive (doi:10.1016/j.jct.2013.01.005).

Numbers after ± are expanded uncertainties.

The data set in a line: activity coefficient (dimensionless); of the first substance listed, at infinite dilution; xn = mol fraction of the nth substance listed. The settings on record: 101 kPa, Liquid, Chromatography, x1 = 0.

For `CC(C)CC(C)(C)C` [2,2,4-trimethylpentane] + CCCCC[N+]1(C)CCCCC1.O=S(=O)([N-]S(=O)(=O)C(F)(F)F)C(F)(F)F, the activity coefficient turned out to be 13.4 ± 0.9 (308.15 K); 12.5 ± 0.9 (318.15 K); 11.8 ± 0.8 (328.15 K); 11.4 ± 0.8 (338.15 K); 10.9 ± 0.7 (348.15 K); 10.6 ± 0.7 (358.15 K).
`CCC(C)(C)C` [2,2-dimethylbutane] + CCCCCC[N+]1(C)CCCCC1.O=S(=O)([N-]S(=O)(=O)C(F)(F)F)C(F)(F)F: the activity coefficient amounted to 6.67 ± 0.45 (308.15 K); 6.44 ± 0.44 (318.15 K); 6.12 ± 0.42 (328.15 K); 6 ± 0.41 (338.15 K); 5.84 ± 0.4 (348.15 K); 5.65 ± 0.39 (358.15 K).
Regarding `CCC(C)(C)C` [2,2-dimethylbutane] + CCCCC[N+]1(C)CCCCC1.O=S(=O)([N-]S(=O)(=O)C(F)(F)F)C(F)(F)F, the activity coefficient was found to be 7.94 ± 0.54 (318.15 K); 7.7 ± 0.53 (328.15 K); 7.34 ± 0.5 (338.15 K); 7.04 ± 0.48 (348.15 K); 6.86 ± 0.47 (358.15 K).
Regarding `CCCCC(C)=O` [2-hexanone] + CCCCCC[N+]1(C)CCCCC1.O=S(=O)([N-]S(=O)(=O)C(F)(F)F)C(F)(F)F, the activity coefficient was 0.694 ± 0.047 (308.15 K); 0.706 ± 0.047 (318.15 K); 0.722 ± 0.048 (328.15 K); 0.74 ± 0.049 (338.15 K); 0.764 ± 0.05 (348.15 K); 0.784 ± 0.051 (358.15 K).
`CCCCC(C)=O` [2-hexanone] + CCCCC[N+]1(C)CCCCC1.O=S(=O)([N-]S(=O)(=O)C(F)(F)F)C(F)(F)F: the activity coefficient reads like this: (318.15 K) 0.761 ± 0.05; (328.15 K) 0.779 ± 0.051; (338.15 K) 0.792 ± 0.052; (348.15 K) 0.822 ± 0.053; (358.15 K) 0.84 ± 0.054.
`CCC(C)(C)OC` [2-methoxy-2-methylbutane] + CCCCCC[N+]1(C)CCCCC1.O=S(=O)([N-]S(=O)(=O)C(F)(F)F)C(F)(F)F: the activity coefficient (308.15 K) is 2.11 ± 0.14; the activity coefficient (318.15 K) was found to be 2.14 ± 0.15; the activity coefficient (328.15 K) stood at 2.18 ± 0.15; the activity coefficient (338.15 K) was found to be 2.2 ± 0.15; the activity coefficient (348.15 K) was determined as 2.22 ± 0.15; the activity coefficient (358.15 K) was found to be 2.25 ± 0.15.
`CCC(C)(C)OC` [2-methoxy-2-methylbutane] + CCCCC[N+]1(C)CCCCC1.O=S(=O)([N-]S(=O)(=O)C(F)(F)F)C(F)(F)F: the activity coefficient came to 2.44 ± 0.17 (308.15 K); 2.47 ± 0.17 (318.15 K); 2.5 ± 0.17 (328.15 K); 2.53 ± 0.17 (338.15 K); 2.57 ± 0.17 (348.15 K); 2.6 ± 0.18 (358.15 K).
For `COC(C)(C)C` [2-methoxy-2-methylpropane] + CCCCCC[N+]1(C)CCCCC1.O=S(=O)([N-]S(=O)(=O)C(F)(F)F)C(F)(F)F, the activity coefficient is, setting by setting: (308.15 K) 1.59 ± 0.11; (318.15 K) 1.63 ± 0.11; (328.15 K) 1.66 ± 0.11; (338.15 K) 1.7 ± 0.11; (348.15 K) 1.72 ± 0.12; (358.15 K) 1.76 ± 0.12.
`COC(C)(C)C` [2-methoxy-2-methylpropane] + CCCCC[N+]1(C)CCCCC1.O=S(=O)([N-]S(=O)(=O)C(F)(F)F)C(F)(F)F: the activity coefficient was 1.81 ± 0.12 (308.15 K); 1.85 ± 0.12 (318.15 K); 1.86 ± 0.13 (328.15 K); 1.89 ± 0.13 (338.15 K); 1.94 ± 0.13 (348.15 K); 1.98 ± 0.13 (358.15 K).
For the compound `CC(C)=O` [acetone] + CCCCCC[N+]1(C)CCCCC1.O=S(=O)([N-]S(=O)(=O)C(F)(F)F)C(F)(F)F, the activity coefficient was 0.421 ± 0.035 (308.15 K); 0.429 ± 0.035 (318.15 K); 0.436 ± 0.035 (328.15 K); 0.444 ± 0.036 (338.15 K); 0.455 ± 0.036 (348.15 K); 0.46 ± 0.036 (358.15 K).
Consider `CC(C)=O` [acetone] + CCCCC[N+]1(C)CCCCC1.O=S(=O)([N-]S(=O)(=O)C(F)(F)F)C(F)(F)F, for which the activity coefficient by setting is: (308.15 K) 0.398 ± 0.034; (318.15 K) 0.426 ± 0.035; (328.15 K) 0.435 ± 0.035; (338.15 K) 0.441 ± 0.035; (348.15 K) 0.456 ± 0.036; (358.15 K) 0.466 ± 0.036.
`c1ccccc1` [benzene] + CCCCCC[N+]1(C)CCCCC1.O=S(=O)([N-]S(=O)(=O)C(F)(F)F)C(F)(F)F: the activity coefficient amounted to 0.669 ± 0.045 (308.15 K); 0.687 ± 0.046 (318.15 K); 0.695 ± 0.047 (328.15 K); 0.71 ± 0.047 (338.15 K); 0.722 ± 0.048 (348.15 K); 0.73 ± 0.048 (358.15 K).
`c1ccccc1` [benzene] + CCCCC[N+]1(C)CCCCC1.O=S(=O)([N-]S(=O)(=O)C(F)(F)F)C(F)(F)F: the activity coefficient is, setting by setting: (308.15 K) 0.696 ± 0.047; (318.15 K) 0.703 ± 0.047; (328.15 K) 0.712 ± 0.047; (338.15 K) 0.721 ± 0.048; (348.15 K) 0.744 ± 0.049; (358.15 K) 0.753 ± 0.05.
In the case of `CCCCO` [butan-1-ol] + CCCCCC[N+]1(C)CCCCC1.O=S(=O)([N-]S(=O)(=O)C(F)(F)F)C(F)(F)F, the activity coefficient was found to be 2.4 ± 0.16 (308.15 K); 2.13 ± 0.14 (318.15 K); 1.93 ± 0.13 (328.15 K); 1.76 ± 0.12 (338.15 K); 1.64 ± 0.11 (348.15 K); 1.52 ± 0.1 (358.15 K).
`CCCCO` [butan-1-ol] + CCCCC[N+]1(C)CCCCC1.O=S(=O)([N-]S(=O)(=O)C(F)(F)F)C(F)(F)F: the activity coefficient reads like this: (308.15 K) 2.3 ± 0.16; (318.15 K) 2.16 ± 0.15; (328.15 K) 1.98 ± 0.13; (338.15 K) 1.82 ± 0.12; (348.15 K) 1.71 ± 0.11; (358.15 K) 1.57 ± 0.1.
Consider `C1CCCCCC1` [cycloheptane] + CCCCCC[N+]1(C)CCCCC1.O=S(=O)([N-]S(=O)(=O)C(F)(F)F)C(F)(F)F, for which the activity coefficient amounted to 6.23 ± 0.42 (308.15 K); 6.01 ± 0.41 (318.15 K); 5.77 ± 0.39 (328.15 K); 5.52 ± 0.38 (338.15 K); 5.32 ± 0.36 (348.15 K); 5.08 ± 0.35 (358.15 K).
Turning to `C1CCCCCC1` [cycloheptane] + CCCCC[N+]1(C)CCCCC1.O=S(=O)([N-]S(=O)(=O)C(F)(F)F)C(F)(F)F, the activity coefficient (308.15 K) came out at 7.97 ± 0.54; the activity coefficient (318.15 K) was 7.49 ± 0.51; the activity coefficient (328.15 K) worked out at 7.13 ± 0.49; the activity coefficient (338.15 K) came to 6.82 ± 0.46; the activity coefficient (348.15 K) came out at 6.54 ± 0.45; the activity coefficient (358.15 K) stood at 6.26 ± 0.43.
Consider `C1CCCCC1` [cyclohexane] + CCCCCC[N+]1(C)CCCCC1.O=S(=O)([N-]S(=O)(=O)C(F)(F)F)C(F)(F)F, for which the activity coefficient (308.15 K) is 4.99 ± 0.34; the activity coefficient (318.15 K) amounted to 4.8 ± 0.33; the activity coefficient (328.15 K) was determined as 4.6 ± 0.31; the activity coefficient (338.15 K) amounted to 4.43 ± 0.3; the activity coefficient (348.15 K) amounted to 4.28 ± 0.29; the activity coefficient (358.15 K) is 4.06 ± 0.28.
Turning to `C1CCCCC1` [cyclohexane] + CCCCC[N+]1(C)CCCCC1.O=S(=O)([N-]S(=O)(=O)C(F)(F)F)C(F)(F)F, the activity coefficient by setting is: (308.15 K) 6.4 ± 0.44; (318.15 K) 5.95 ± 0.41; (328.15 K) 5.64 ± 0.38; (338.15 K) 5.42 ± 0.37; (348.15 K) 5.13 ± 0.35; (358.15 K) 4.99 ± 0.34.
In the case of `C1=CCCCC1` [cyclohexene] + CCCCCC[N+]1(C)CCCCC1.O=S(=O)([N-]S(=O)(=O)C(F)(F)F)C(F)(F)F, the activity coefficient (308.15 K) turned out to be 3.07 ± 0.21; the activity coefficient (318.15 K) is 3 ± 0.2; the activity coefficient (328.15 K) is 2.94 ± 0.2; the activity coefficient (338.15 K) worked out at 2.88 ± 0.2; the activity coefficient (348.15 K) stood at 2.81 ± 0.19; the activity coefficient (358.15 K) was 2.75 ± 0.19.
